Laboratory results: patent CN113354616A, “二芳基-1,2,4-三唑类化合物及其制法和药物用途” (Institute of Materia Medica of CAMS and PUMC, priority 2020, dated 2021)

Legend:
[1] = tested on: hyperuricemic mice (高尿酸血症小鼠); test: 实验例2: effect of TAZ-3-16 on lowering blood uric acid in hyperuricemic (HUA) model mice (hypoxanthine plus potassium oxonate, repeated stimulation); assay type: in vivo; conditions: HUA model ICR mice, intragastric, n=10, compared with model control
[2] = tested on: acute hyperuricemic mice (急性高尿酸血症小鼠); test: 实验例3: effect of TAZ-3-19 on lowering blood uric acid in acute hyperuricemia model mice (hypoxanthine plus potassium oxonate); assay type: in vivo; conditions: acute hyperuricemia ICR mice, intragastric, n=10, compared with model control

With `Clc1cc(-c2nc(-c3ccncc3)n[nH]2)cc(Cl)c1OCCCN1CCCCC1` [TAZ-3-16] the “blood uric acid level” value ([1]; 0.5 mg/kg once daily for 2 days) was “明显降低”.
For `Cc1nc(-c2ccc(OCC(C)C)c(C#N)c2)sc1C(=O)O` [非布索坦, reference compound], the “blood uric acid level” value ([1]; 1 mg/kg once daily for 2 days) was “明显降低”.
For `CN1CCN(CCCOc2c(Cl)cc(-c3nc(-c4ccncc4)n[nH]3)cc2Cl)CC1` [TAZ-3-19], the “decrease of peak blood uric acid” value ([2]; 0.625 mg/kg) was 5.7%, the “decrease of peak blood uric acid” value ([2]; 1.25 mg/kg) was 34.2% and the “decrease of peak blood uric acid” value ([2]; 2.5 mg/kg) was 68.0%.
